From patent publication US10334859B2, “Method and pesticidal mixtures for controlling Pentatomidae pests” (BASF SE, priority 2014, dated 2019)
Like-named read-outs stand apart in the source and are kept apart here.

Columns and labels:
Alternaria solani = assay type: cell-based
Septoria tritici = assay type: cell-based
Phytophthora infestans = assay type: cell-based
[1] = tested on: southern green stink bug (Nezara viridula); assay: Test 7: control of southern green stink bug on dipped Lima bean plants; assay type: in vivo; conditions: 50 ppm; mortality (sick + death insects) of second instar at 5 days
Description: Beauveria bassiana strain PPRI 5339 was at room temperature for one hour before use.
Seven days old Lima bean plants were dipped into each treatment. Once dried, plants were artificially infested with four second instar southern green stink bugs. Percentage of mortality (sick+ death insects) was evaluated at 5 days.

Leptosphaeria nodorum = assay type: cell-based
Pyricularia oryzae = assay type: cell-based
[2] = tested on: southern green stink bug (Nezara viridula); assay: Test 5: control of southern green stink bug, dipped green beans and bugs; conditions: 10 ppm
Botrytis cinerea = assay type: cell-based; conditions: concentration 4

Molecule: Fc1ccc([C@]2(Cn3cncn3)O[C@H]2c2ccccc2Cl)cc1 (racemic) [Epoxiconazol, epoxiconazole]
- Observed efficacy (Alternaria solani; concentration 0.25): 36%
- Observed efficacy (Septoria tritici; concentration 0.25): 35%

Molecule: CCCCCCCCc1c(CC)nc2ncnn2c1N [Ametoctradin, ametoctradin]
- Observed efficacy (Phytophthora infestans; 0.004 ppm): 0%

Molecule: CC(C)(C)[C@]1(O)C[C@@H]2OC(=O)C[C@@]23C(=O)O[C@@H]2OC(=O)[C@H](O)[C@]213 [Bilobalide, (3aS,5aR,8aS,9R,10aR)-9-tert-butyl-8,9-dihydroxydihydro-9H-furo[2,3-b]furo[3′,2′;2,3]cyclopenta[1,2-c]furan-2,4,7(3H,8H)-trione]
- Observed efficacy (Alternaria solani; concentration 16): 0%
- Observed efficacy (Alternaria solani; concentration 63): 0%
- Observed efficacy [1]: 33%
- Observed efficacy (Leptosphaeria nodorum; concentration 63): 24%
- Observed efficacy (Pyricularia oryzae; concentration 4): 3%
- Observed efficacy (Pyricularia oryzae; concentration 16): 1%
- Observed efficacy (Pyricularia oryzae; concentration 63): 5%
- Observed efficacy (Phytophthora infestans; 0.063 ppm): 0%
- Observed efficacy (Phytophthora infestans; 0.25 ppm): 4%
- Observed efficacy (Phytophthora infestans; 1 ppm): 24%
- Observed efficacy (Septoria tritici; concentration 1): 6%
- Observed efficacy (Septoria tritici; concentration 4): 8%
- Observed efficacy (Septoria tritici; concentration 16): 9%

Molecule: CC1COC(Cn2cncn2)(c2ccc(Oc3ccc(Cl)cc3)cc2Cl)O1 (stereo not shown) [Difenoconazol, difenoconazole]
- Observed efficacy (Alternaria solani; concentration 1): 0%
- Observed efficacy (Leptosphaeria nodorum; concentration 1): 21%

Molecule: CC1(C(=O)Nc2ccc(O)c(Cl)c2Cl)CCCCC1 [Fenhexamid, fenhexamid]
- Observed efficacy (Alternaria solani; concentration 4): 46%

Molecule: CO/N=C(/C1=NOCCO1)c1ccccc1Oc1ncnc(Oc2ccccc2Cl)c1F [Fluoxastrobin, fluoxastrobin]
- Observed efficacy (Alternaria solani; concentration 0.25): 11%

Molecule: Cn1cc(C(=O)Nc2ccccc2-c2cc(F)c(F)c(F)c2)c(C(F)F)n1 [Fluxapyroxad, fluxapyroxad]
- Observed efficacy [2]: 0%

Molecule: C[C@@H]1C(=O)O[C@H]2C[C@@]34[C@H]5C[C@@H](C(C)(C)C)[C@]36[C@@H](OC(=O)[C@@H]6O)O[C@@]4(C(=O)O5)[C@]21O [Ginkgolide A]
- Observed efficacy (Alternaria solani; concentration 16): 0%
- Observed efficacy (Alternaria solani; concentration 63): 0%
- Observed efficacy (Leptosphaeria nodorum; concentration 63): 18%
- Observed efficacy (Septoria tritici; concentration 63): 16%

Molecule: CO/C=C(/C(=O)OC)c1ccccc1COc1cccc(C(F)(F)F)n1 [Picoxystrobin, picoxystrobin]
- Observed efficacy (Alternaria solani; concentration 0.25): 39%

Molecule: CCCN(CCOc1c(Cl)cc(Cl)cc1Cl)C(=O)n1ccnc1 [Prochloraz, prochloraz]
- Observed efficacy (Botrytis cinerea): 39%
- Observed efficacy (Septoria tritici; concentration 4): 49%

Molecule: COC(=O)N(OC)c1ccccc1COc1ccn(-c2ccc(Cl)cc2)n1 [Pyraclostrobin, pyraclostrobin]
- Observed efficacy [2]: 0%
- Observed efficacy (Septoria tritici; concentration 0.004): 59%

Molecule: CON=C(C(=O)OC)c1ccccc1CON=C(C)c1cccc(C(F)(F)F)c1 [Trifloxystrobin, trifloxystrobin]
- Observed efficacy (Septoria tritici; concentration 0.004): 7%
- Observed efficacy (Septoria tritici; concentration 0.016): 67%

Molecule: chlorothalonil
- Observed efficacy (Botrytis cinerea): 53%
- Observed efficacy (Leptosphaeria nodorum; concentration 1): 39%
